Experiments:
Format in all cases: in vivo
[1] = system: “Momotaro” tomato; experiment: Example 2 temperature stress tolerance imparting test (tomato); conditions: 32° C., leaf, 2 weeks
Experimental: Other cultivation conditions were the same as the conditions of the temperature stress test. […] (2) Solution culture medium: […] Method of Temperature Stress Tolerance Imparting Test The temperature in a climatic chamber was controlled so as to be 10, 15, or 32° C. The environmental conditions were controlled so as to have an illuminance by a fluorescent light of 5000 Lux and a daily light-dark cycle of a 16-hour light period and a 8-hour dark period. In this test, a temperature of 23° C. at which the optimum growth was observed was regarded as a reference temperature (temperature stress-free test condition), and a stress was imposed by applying a temperature higher or lower than the reference temperature. A tomato as prepared above was planted in a 250 ml polyethylene bottle filled with the solution culture medium (½ Otsuka A formulation). A treatment solution as presented in Table 1 was sprayed onto the leaves or applied to the underground portion. […] Ten specimens were prepared for each of the test plot and the control plots, and a plant stress level and an extent of imparting plant stress tolerance were calculated according to Formula (ii) and (iii) above using as a fresh plant body weight the average of the fresh plant body weights of each specimen 2 weeks after the beginning of the test.

[2] = system: potato; experiment: Example 9 drying stress test (potato), soil culture; conditions: 23° C., leaf, 100 ppm, 2 weeks; for Fresh weight, relative value (untreated plot = 100), Test 1 / Fresh weight, relative value (untreated plot = 100), Test 4 / Fresh weight, relative value (untreated plot = 100), Test 2 / Fresh weight, relative value (untreated plot = 100), Test 3: potato soil culture; for Fresh weight, relative value (untreated plot = 100), Test 1: EC 1, pF 2.8, two-leaf stage; for Fresh weight, relative value (untreated plot = 100), Test 4: EC 1, pF 3.5, five-leaf stage; for Fresh weight, relative value (untreated plot = 100), Test 2: EC 1, pF 3.5, two-leaf stage; for Fresh weight, relative value (untreated plot = 100), Test 3: EC 1, pF 4.1, two-leaf stage; for Fresh weight, relative value (untreated plot = 100), Comparison 1: stress-free: potato soil culture, EC 1, pF 1.7, two-leaf stage
Experimental: (§1) The environmental conditions in a climatic chamber were controlled so as to have a temperature of 23° C., an illuminance by a fluorescent light of 5000 Lux, and a daily light-dark cycle of a 16-hour light period and an 8-hour dark period. Potatoes as prepared above were transplanted in size-5 (15 cm) pots. During the test period, the pF value was controlled by adding a suitable amount of tap water once a day so as to attain a specific drying stress value. A treatment solution containing a compound of Table 5 in a specific concentration (the remainder was water) was prepared and sprayed onto the leaves or applied to the underground portions. […] A comparative example was constructed to reflect the drying stress-free optimum cultivation conditions to investigate the plant energizing ability. […] Moreover, when the products of the present invention and the comparative products were compared, the stress tolerance imparting ability of the products of the present invention was higher in respective drying stress conditions.

[3] = system: tomato; experiment: Example 7 drying stress test (tomato), soil culture; conditions: 23° C., leaf, 100 ppm, 2 weeks; for Fresh weight, relative value (untreated plot = 100), Comparison 1: stress-free: tomato soil culture, EC 1, pF 1.7, two-leaf stage; for Fresh weight, relative value (untreated plot = 100), Test 1 / Fresh weight, relative value (untreated plot = 100), Test 4 / Fresh weight, relative value (untreated plot = 100), Test 2 / Fresh weight, relative value (untreated plot = 100), Test 3: tomato soil culture; for Fresh weight, relative value (untreated plot = 100), Test 1: EC 1, pF 2.8, two-leaf stage; for Fresh weight, relative value (untreated plot = 100), Test 4: EC 1, pF 3.5, five-leaf stage; for Fresh weight, relative value (untreated plot = 100), Test 2: EC 1, pF 3.5, two-leaf stage; for Fresh weight, relative value (untreated plot = 100), Test 3: EC 1, pF 4.1, two-leaf stage
Experimental: as §1, with “period. Tomatoes” for “period. Potatoes”, “in size-3 (9” for “in size-5 (15”, “Table 1” for “Table 5”

[4] = system: “Momotaro” tomato; experiment: Example 1 salt stress tolerance imparting test (tomato, hydroponic, Otsuka 1/2A + NaCl); conditions: NaCl 3510 ppm, leaf, 2 weeks
Experimental: (1) Salt stress-free test conditions: NaCl concentration (water potential by Nan): 0 ppm (0 MPa). Other cultivation conditions were as the same as the conditions of the drying stress test.
When the leaves in the 2-leaf stage fully unfolded, the soil on the tomato roots was carefully washed away with running water, and a test was performed.
Method of Salt Stress Tolerance Imparting Test
The environmental conditions in a climatic chamber were controlled so as to have a temperature of 23° C., an illuminance by a fluorescent light of 5000 Lux, and a daily light-dark cycle of a 16-hour light period and an 8-hour dark period. […] A treatment solution containing a compound of Table 1 in a specific concentration (the remainder was water) was prepared and sprayed onto the leaves or applied to the underground portion. In addition, a control plot to which no NaCl was added, not imposing a salt stress (this is a control plot for plant body weight 2 for Formula (ii) and is a stress-free control plot) and a control plot to which NaCl was added in various concentrations, imposing a salt stress, and to which the treatment solution was not applied (this is a control plot for plant body weight 1 for Formula (ii) and is a control plot including a salt stress) were prepared as controls. Ten specimens were prepared for each of the test plot and the control plots, and a plant stress level and an extent of imparting plant stress tolerance were calculated according to Formulas (II) above using as a fresh plant body weight the average of the fresh plant body weights of each specimen 2 weeks after the beginning of the test.

Molecule | Extent of imparting plant stress tolerance ([1]; 100 ppm) | Fresh weight, relative value (untreated plot = 100), Test 1 [2] | Fresh weight, relative value (untreated plot = 100), Test 4 [2] | Fresh weight, relative value (untreated plot = 100), Test 2 [2] | Fresh weight, relative value (untreated plot = 100), Test 3 [2] | Fresh weight, relative value (untreated plot = 100), Comparison 1 [2] | Fresh weight, relative value (untreated plot = 100), Comparison 1 [3] | Fresh weight, relative value (untreated plot = 100), Test 1 [3] | Fresh weight, relative value (untreated plot = 100), Test 4 [3] | Fresh weight, relative value (untreated plot = 100), Test 2 [3] | Fresh weight, relative value (untreated plot = 100), Test 3 [3] | Extent of imparting plant stress tolerance ([4]; 100 ppm) | Extent of imparting plant stress tolerance ([1]; 200 ppm) | Extent of imparting plant stress tolerance ([4]; 200 ppm)
Sucrose fatty acid ester (C18, HLB = 15) [Product of present invention 20] | 115% | 118 | 128 | 135 | 118 | 102 | 103 | 119 | 136 | 139 | 124 | 113% | – | –
Alkyl (C10) polyglycoside [Product of present invention 15] | 115% | 121 | 134 | 142 | 121 | 102 | 101 | 121 | 139 | 147 | 126 | 115% | 115% | 114%
C[N+](C)(C)CC(=O)[O-] [Comparative product 3, Glycine betaine, reference compound] | 102% | 102 | 101 | 102 | 102 | 102 | 102 | 102 | 101 | 103 | 103 | 103% | – | –
